# Assays:
# Assay in all cases: cells
# CHP-212 = assay type: functional, cell-based; details: Homo sapiens
# Description: SANGER: Inhibition of human CHP-212 cell growth in a cell viability assay.
# OVCAR-3 = assay type: functional, cell-based; details: Homo sapiens;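 note: growth inhibition of human OVCAR-3 cells, determined by a cell viability assay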
# Description: SANGER: Inhibition of human OVCAR-3 cell growth in a cell viability assay.
# BFTC-905 = assay type: functional, cell-based; details: Homo sapiens
# Description: SANGER: Inhibition of human BFTC-905 cell growth in a cell viability assay.
# SBC-5 = assay type: functional, cell-based; details: Homo sapiens;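 note: cell viability assay read-out, IC50 is the concentration that inhibits growth of the cells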
# Description: SANGER: Inhibition of human SBC-5 cell growth in a cell viability assay.
# MDA-MB-134-VI = assay type: functional, cell-based, Homo sapiens; details: Homo sapiens, MDA-MB-134-VI
# Description: SANGER: Inhibition of human MDA-MB-134-VI cell growth in a cell viability assay.
# T47D = assay type: functional, cell-based; details: Homo sapiens;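 note: growth inhibition of human T47D cells, measured with a cell viability assay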
# Description: SANGER: Inhibition of human T47D cell growth in a cell viability assay.
# NCI-H510A = assay type: functional, cell-based, Homo sapiens; details: Homo sapiens, NCI-H510A;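 note: growth inhibition of NCI-H510A cells, read out with a cell viability assay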
# Description: SANGER: Inhibition of human NCI-H510A cell growth in a cell viability assay.
# 786-0 = assay type: functional, cell-based; details: Homo sapiens
# Description: SANGER: Inhibition of human 786-0 cell growth in a cell viability assay.
# SR = assay type: functional, cell-based, Homo sapiens; details: Homo sapiens, SR
# Description: SANGER: Inhibition of human SR cell growth in a cell viability assay.
# BCPAP = assay type: functional, cell-based; details: Homo sapiens;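 note: growth inhibition of BCPAP cells, read out in a cell viability assay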
# Description: SANGER: Inhibition of human BCPAP cell growth in a cell viability assay.
# PANC-03-27 = assay type: functional, cell-based; details: Homo sapiens
# Description: SANGER: Inhibition of human PANC-03-27 cell growth in a cell viability assay.
# NY = assay type: functional, cell-based; details: Homo sapiens
# Description: SANGER: Inhibition of human NY cell growth in a cell viability assay.
# JEG-3 = assay type: functional, cell-based; details: Homo sapiens;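 note: growth inhibition of human JEG-3 cells, read out with a cell viability assay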
# Description: SANGER: Inhibition of human JEG-3 cell growth in a cell viability assay.
# BFTC-909 = assay type: functional, cell-based; details: Homo sapiens
# Description: SANGER: Inhibition of human BFTC-909 cell growth in a cell viability assay.
# U-118-MG = assay type: functional, cell-based; details: Homo sapiens
# Description: SANGER: Inhibition of human U-118-MG cell growth in a cell viability assay.
# HCC1569 = assay type: functional, cell-based; details: Homo sapiens;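 note: growth inhibition of human HCC1569 cells, read out with a cell viability assay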
# Description: SANGER: Inhibition of human HCC1569 cell growth in a cell viability assay.
# DU-145 = assay type: functional, cell-based; details: Homo sapiens
# Description: SANGER: Inhibition of human DU-145 cell growth in a cell viability assay.
# LC4-1 = assay type: functional, cell-based, Homo sapiens; details: Homo sapiens, LC4-1;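 note: growth inhibition of LC4-1 cells, read out with a cell viability assay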
# Description: SANGER: Inhibition of human LC4-1 cell growth in a cell viability assay.
# K052 = assay type: functional, cell-based, Homo sapiens; details: Homo sapiens, K052;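 note: Read-out from a cell viability assay, IC50 reflecting suppression of K052 cell growth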
# Description: SANGER: Inhibition of human K052 cell growth in a cell viability assay.
# CAL-12T = assay type: functional, cell-based; details: Homo sapiens;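 note: growth inhibition of human CAL-12T cells, read out with a cell viability assay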
# Description: SANGER: Inhibition of human CAL-12T cell growth in a cell viability assay.
# CP50-MEL-B = assay type: functional, cell-based; details: Homo sapiens;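 note: growth inhibition of the human cell line, measured with a cell viability read-out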
# Description: SANGER: Inhibition of human CP50-MEL-B cell growth in a cell viability assay.
# NCI-H716 = assay type: functional, cell-based, Homo sapiens; details: Homo sapiens, NCI-H716;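 note: growth inhibition of human NCI-H716 cells, measured by a cell viability assay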
# Description: SANGER: Inhibition of human NCI-H716 cell growth in a cell viability assay.
# FTC-133 = assay type: functional, cell-based; details: Homo sapiens
# COLO-678 = assay type: functional, cell-based; details: Homo sapiens
# Description: SANGER: Inhibition of human COLO-678 cell growth in a cell viability assay.
# NCI-H2228 = assay type: functional, cell-based; details: Homo sapiens;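 note: growth inhibition of human NCI-H2228 cells, read out by a cell viability assay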
# Description: SANGER: Inhibition of human NCI-H2228 cell growth in a cell viability assay.
# SK-MEL-24 = assay type: functional, cell-based; details: Homo sapiens;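 note: growth inhibition read out by a cell viability assay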
# Description: SANGER: Inhibition of human SK-MEL-24 cell growth in a cell viability assay.
# THP-1 = assay type: functional, cell-based, Homo sapiens; details: Homo sapiens, THP-1;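 note: growth inhibition of THP-1 cells, read out via a cell viability assay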
# Description: SANGER: Inhibition of human THP-1 cell growth in a cell viability assay.
# KMOE-2 = assay type: functional, cell-based, Homo sapiens; details: Homo sapiens, KMOE-2;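 note: growth inhibition of human KMOE-2 cells, read out with a cell viability assay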
# Description: SANGER: Inhibition of human KMOE-2 cell growth in a cell viability assay.
# NCI-H1623 = assay type: functional, cell-based; details: Homo sapiens;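 note: cell viability assay used as the read-out for growth inhibition of NCI-H1623 cells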
# Description: SANGER: Inhibition of human NCI-H1623 cell growth in a cell viability assay.
# P31-FUJ = assay type: functional, cell-based, Homo sapiens; details: Homo sapiens, P31-FUJ;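 note: growth inhibition of P31-FUJ cells, read out with a viability assay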
# Description: SANGER: Inhibition of human P31-FUJ cell growth in a cell viability assay.
# SW1710 = assay type: functional, cell-based; details: Homo sapiens;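 note: growth inhibition of SW1710 cells, determined with a cell viability assay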
# Description: SANGER: Inhibition of human SW1710 cell growth in a cell viability assay.
# CHL-1 = assay type: functional, cell-based; details: Homo sapiens;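 note: cell growth inhibition, read out with a cell viability assay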
# Description: SANGER: Inhibition of human CHL-1 cell growth in a cell viability assay.
# HCC38 = assay type: functional, cell-based; details: Homo sapiens;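 note: cell viability assay on the human HCC38 cell line, with IC50 marking the concentration that inhibits cell growth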
# Description: SANGER: Inhibition of human HCC38 cell growth in a cell viability assay.
# SAOS-2 = assay type: functional, cell-based; details: Homo sapiens;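 note: growth inhibition of human Saos-2 cells determined by a cell viability assay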
# Description: SANGER: Inhibition of human Saos-2 cell growth in a cell viability assay.
# KYSE-150 cell line = assay type: functional, cell-based; details: Homo sapiens;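 note: growth inhibition of human KYSE-150 cells, read out with a cell viability assay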
# Description: SANGER: Inhibition of human KYSE-150 cell growth in a cell viability assay.
# PANC-08-13 = assay type: functional, cell-based; details: Homo sapiens;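 note: cell growth inhibition, measured with a cell viability assay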
# Description: SANGER: Inhibition of human PANC-08-13 cell growth in a cell viability assay.
# KMS-12-PE = assay type: functional, cell-based, Homo sapiens; details: Homo sapiens, KMS-12-PE;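 note: growth inhibition of human KMS-12-PE cells, measured with a cell viability assay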
# Description: SANGER: Inhibition of human KMS-12-PE cell growth in a cell viability assay.
# EHEB = assay type: functional, cell-based; details: Homo sapiens;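 note: growth inhibition of human EHEB cells, read out with a cell viability assay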
# Description: SANGER: Inhibition of human EHEB cell growth in a cell viability assay.
# GAMG = assay type: functional, cell-based; details: Homo sapiens;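 note: cell growth inhibition measured by a viability assay in the GAMG human cell line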
# Description: SANGER: Inhibition of human GAMG cell growth in a cell viability assay.
# IGROV-1 = assay type: functional, cell-based; details: Homo sapiens;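 note: reduction of IGROV-1 cell growth, read out with a viability assay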
# Description: SANGER: Inhibition of human IGROV-1 cell growth in a cell viability assay.
# OE19 = assay type: functional, cell-based; details: Homo sapiens;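 note: growth inhibition of OE19 cells, measured through a cell viability read-out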
# Description: SANGER: Inhibition of human OE19 cell growth in a cell viability assay.
# NCI-H1436 = assay type: functional, cell-based, Homo sapiens; details: Homo sapiens, NCI-H1436;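 note: growth suppression of human NCI-H1436 cells, determined with a cell viability readout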
# Description: SANGER: Inhibition of human NCI-H1436 cell growth in a cell viability assay.
# 8305C = assay type: functional, cell-based; details: Homo sapiens
# Description: SANGER: Inhibition of human 8305C cell growth in a cell viability assay.
# 647-V = assay type: functional, cell-based; details: Homo sapiens;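 note: growth inhibition of 647-V cells, read out with a cell viability assay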
# Description: SANGER: Inhibition of human 647-V cell growth in a cell viability assay.
# UO-31 = assay type: functional, cell-based; details: Homo sapiens;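 note: cell viability assay measuring inhibition of cell growth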
# Description: SANGER: Inhibition of human U031 cell growth in a cell viability assay.
# NCI-H1793 = assay type: functional, cell-based; details: Homo sapiens;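 note: cell growth inhibition, read out by a cell viability assay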
# Description: SANGER: Inhibition of human NCI-H1793 cell growth in a cell viability assay.
# HOS = assay type: functional, cell-based; details: Homo sapiens;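 note: growth inhibition of human HOS cells, read out with a cell viability assay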
# Description: SANGER: Inhibition of human HOS cell growth in a cell viability assay.
# NCI-H2030 = assay type: functional, cell-based; details: Homo sapiens;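 note: growth inhibition of human NCI-H2030 cells, read out by a cell viability assay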
# Description: SANGER: Inhibition of human NCI-H2030 cell growth in a cell viability assay.
# HuCCT-1 = assay type: functional, cell-based, HuCCT1; details: Homo sapiens;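 note: growth inhibition of HuCCT-1 cells, read out by a cell viability assay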
# Description: SANGER: Inhibition of human HuCCT1 cell growth in a cell viability assay.
# Ca-Ski = assay type: functional, cell-based; details: Homo sapiens;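 note: cell viability assay measuring inhibition of Ca-Ski cell growth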
# Description: SANGER: Inhibition of human Ca-Ski cell growth in a cell viability assay.
# HC-1 = assay type: functional, cell-based, Homo sapiens; details: Homo sapiens, HC-1;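 note: growth inhibition of HC-1 cells measured by a cell viability assay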
# Description: SANGER: Inhibition of human HC-1 cell growth in a cell viability assay.
# HLE = assay type: functional, cell-based; details: Homo sapiens;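 note: growth inhibition of human HLE cells, read out by a cell viability assay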
# Description: SANGER: Inhibition of human HLE cell growth in a cell viability assay.
# MG-63 = assay type: functional, cell-based; details: Homo sapiens;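 note: growth inhibition of human MG-63 cells, read out with a cell viability assay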
# Description: SANGER: Inhibition of human MG-63 cell growth in a cell viability assay.
# HCC1954 = assay type: functional, cell-based; details: Homo sapiens;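 note: growth inhibition of human HCC1954 cells, read out with a cell viability assay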
# Description: SANGER: Inhibition of human HCC1954 cell growth in a cell viability assay.
# HN = assay type: functional, cell-based; details: Homo sapiens
# Description: SANGER: Inhibition of human HN cell growth in a cell viability assay.
# MCF7 = assay type: functional, cell-based; details: Homo sapiens;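 note: growth inhibition of human MCF7 cells, read out with a cell viability assay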
# Description: SANGER: Inhibition of human MCF7 cell growth in a cell viability assay.
# RPMI-2650 = assay type: functional, cell-based; details: Homo sapiens
# Description: SANGER: Inhibition of human RPMI-2650 cell growth in a cell viability assay.
# COLO-741 = assay type: functional, cell-based; details: Homo sapiens
# Description: SANGER: Inhibition of human COLO-741 cell growth in a cell viability assay.
# CAL-51 = assay type: functional, cell-based; details: Homo sapiens;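 note: human CAL-51 cell line, growth inhibition read out via a cell viability assay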
# Description: SANGER: Inhibition of human CAL-51 cell growth in a cell viability assay.
# SW48 = assay type: functional, cell-based; details: Homo sapiens;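 note: growth inhibition of SW48 cells, read out with a cell viability assay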
# Description: SANGER: Inhibition of human SW48 cell growth in a cell viability assay.
compound,measurement,setting,value
OC[C@H](Cc1ccccc1)Nc1nc(Oc2ccc3c(c2)CCC3)nc2c1ncn2Cc1ccc(-c2ccccc2)cc1,IC50,CHP-212,> 10.2 µM
same,IC50,OVCAR-3,> 10.2 µM
same,IC50,BFTC-905,5.02 µM
same,IC50,SBC-5,> 10.2 µM
same,IC50,MDA-MB-134-VI,> 10.2 µM
same,IC50,T47D,> 10.2 µM
same,IC50,NCI-H510A,> 10.2 µM
same,IC50,786-0,1.26 µM
same,IC50,SR,> 10.2 µM
same,IC50,BCPAP,> 10.2 µM
same,IC50,PANC-03-27,7.89 µM
same,IC50,NY,> 10.2 µM
same,IC50,JEG-3,> 10.2 µM
same,IC50,BFTC-909,> 10.2 µM
same,IC50,U-118-MG,> 10.2 µM
same,IC50,HCC1569,> 10.2 µM
same,IC50,DU-145,7.86 µM
same,IC50,LC4-1,> 10.2 µM
same,IC50,K052,> 10.2 µM
same,IC50,CAL-12T,2.48 µM
same,IC50,CP50-MEL-B,> 10.2 µM
same,IC50,NCI-H716,> 10.2 µM
same,IC50,FTC-133,> 10.2 µM
same,IC50,COLO-678,> 10.2 µM
same,IC50,NCI-H2228,> 10.2 µM
same,IC50,SK-MEL-24,> 10.2 µM
same,IC50,THP-1,> 10.2 µM
same,IC50,KMOE-2,> 10.2 µM
same,IC50,NCI-H1623,> 10.2 µM
same,IC50,P31-FUJ,> 10.2 µM
same,IC50,SW1710,1.43 µM
same,IC50,CHL-1,> 10.2 µM
same,IC50,HCC38,> 10.2 µM
same,IC50,SAOS-2,> 10.2 µM
same,IC50,KYSE-150 cell line,9.34 µM
same,IC50,PANC-08-13,> 10.2 µM
same,IC50,KMS-12-PE,> 10.2 µM
same,IC50,EHEB,> 10.2 µM
same,IC50,GAMG,> 10.2 µM
same,IC50,IGROV-1,8.45 µM
same,IC50,OE19,> 10.2 µM
same,IC50,NCI-H1436,> 10.2 µM
same,IC50,8305C,2.76 µM
same,IC50,647-V,> 10.2 µM
same,IC50,UO-31,> 10.2 µM
same,IC50,NCI-H1793,> 10.2 µM
same,IC50,HOS,3.08 µM
same,IC50,NCI-H2030,5.25 µM
same,IC50,HuCCT-1,> 10.2 µM
same,IC50,Ca-Ski,> 10.2 µM
same,IC50,HC-1,> 10.2 µM
same,IC50,HLE,5.66 µM
same,IC50,MG-63,4.63 µM
same,IC50,HCC1954,10 µM
same,IC50,HN,8.17 µM
same,IC50,MCF7,2.26 µM
same,IC50,RPMI-2650,> 10.2 µM
same,IC50,COLO-741,> 10.2 µM
same,IC50,CAL-51,2.23 µM
same,IC50,SW48,> 10.2 µM
CCCCCCCCCCCC1=C(O)C(=O)C=C(O)C1=O [EMBELIN],IC50,CHP-212,3.12 µM
same,IC50,OVCAR-3,23.6 µM
same,IC50,BFTC-905,5.03 µM
same,IC50,SBC-5,> 32 µM
same,IC50,MDA-MB-134-VI,> 32 µM
same,IC50,T47D,> 32 µM
same,IC50,NCI-H510A,> 32 µM
same,IC50,786-0,8.64 µM
same,IC50,SR,28.2 µM
same,IC50,BCPAP,13.7 µM
same,IC50,PANC-03-27,> 32 µM
same,IC50,NY,4.8 µM
same,IC50,JEG-3,16.8 µM
same,IC50,BFTC-909,> 32 µM
same,IC50,U-118-MG,29.1 µM
same,IC50,HCC1569,10.3 µM
same,IC50,DU-145,8.76 µM
same,IC50,LC4-1,> 32 µM
same,IC50,K052,29 µM
same,IC50,CAL-12T,9.73 µM
same,IC50,CP50-MEL-B,> 32 µM
same,IC50,NCI-H716,> 32 µM
same,IC50,FTC-133,> 32 µM
same,IC50,COLO-678,> 32 µM
same,IC50,NCI-H2228,> 32 µM
same,IC50,SK-MEL-24,4.67 µM
same,IC50,THP-1,29.8 µM
same,IC50,KMOE-2,24.3 µM
same,IC50,NCI-H1623,25.4 µM
same,IC50,P31-FUJ,> 32 µM
same,IC50,SW1710,14.1 µM
same,IC50,CHL-1,4.7 µM
same,IC50,HCC38,17.9 µM
same,IC50,SAOS-2,3.95 µM
same,IC50,KYSE-150 cell line,12.1 µM
same,IC50,PANC-08-13,> 32 µM
same,IC50,KMS-12-PE,> 32 µM
same,IC50,EHEB,> 32 µM
same,IC50,GAMG,9.09 µM
same,IC50,IGROV-1,5.64 µM
same,IC50,OE19,29.7 µM
same,IC50,NCI-H1436,> 32 µM
same,IC50,8305C,25.7 µM
same,IC50,647-V,24.5 µM
same,IC50,UO-31,19.1 µM
same,IC50,NCI-H1793,> 32 µM
same,IC50,HOS,15.3 µM
same,IC50,NCI-H2030,12.7 µM
same,IC50,HuCCT-1,9.92 µM
same,IC50,Ca-Ski,18.2 µM
same,IC50,HC-1,5.4 µM
same,IC50,HLE,5.93 µM
same,IC50,MG-63,9.64 µM
same,IC50,HCC1954,11.3 µM
same,IC50,HN,24.8 µM
same,IC50,MCF7,8.35 µM
same,IC50,RPMI-2650,7.32 µM
same,IC50,COLO-741,7.42 µM
same,IC50,CAL-51,5.37 µM
same,IC50,SW48,31.1 µM
